Assay results taken from patent publication US4117230A, “Hydantoin derivatives as therapeutic agents” (priority 1977, dated 1978).

Experiments:
aldose reductase = molecular target: T1, aldose reductase (Bos taurus, UniProt P16116); assay: inhibition of aldose reductase enzyme activity (procedure of S. Hayman et al., modified by K. Sestanj et al.); format: biochemical, calf; details: for inhibition at 100 µM: 10^-4 M; for inhibition at 100 µM / inhibition at 10 µM / inhibition at 1 µM / inhibition at 0.1 µM: calf lens enzyme, read-out: Percent inhibition of aldose reductase enzyme activity; for inhibition at 10 µM: 10^-5 M; for inhibition at 1 µM: 10^-6 M; for inhibition at 0.1 µM: 10^-7 M; for aldose reductase inhibitory activity (in words): qualitative statement
T1 construct: partially purified aldose reductose enzyme obtained from calf lens; from tissue; host or cells: calf lens
Experimental: (§1) The activity of the compounds of the present invention, as agents for the control of chronic diabetic complications, is determined by their ability to successfully pass one or more of the following standard biological and/or pharmacological tests, viz., (1) measuring their ability to inhibit the enzyme activity of isolated aldose reductase; (2) measuring their ability to reduce or inhibit sorbitol accumulation in the sciatic nerve of acutely sterptozotocinized (i.e., diabetic) rats; (3) measuring their ability to reverse already-elevated sorbitol levels in the sciatic nerve and lens of chronic streptozotocin-induced diabetic rats; (4) measuring their ability to prevent or inhibit galactitol formation in the lens of acutely galactosemic rats, and (5) measuring their ability to delay cataract formation and reduce the severity of lens opacities in chronic galactosemic rats.
Hayman et al., as described in the Journal of Biological Chemistry, Vol. 240, p. […] In every case, the substrate employed ws partially purified aldose reductose enzyme obtained from calf lens.

[1] = tested on: sorbitol accumulation in the sciatic nerve of streptozotocinized (i.e., diabetic) rats; assay: inhibition of sorbitol accumulation in the sciatic nerve of acutely streptozotocinized (diabetic) rats; format: in vivo, rat; details: measured at 27 h, vs untreated
Experimental: as §1
The following spiro-hydantoin compounds of Preparation C and Examples I-V, VII-IX, XI-XVII, XIX-XXV, XXVII and XXX-XXXIII, respectively, were tested for their ability to reduce or inhibit sorbitol accumulation in the sciatic nerve of streptozotocinized (i.e., diabetic) rats by the procedure essentially described in U.S. Pat. No. 3,821,383. In the present study, the amount of sorbitol accumulation in the sciatic nerves was measured 27 hours after induction of diabetes. The compounds were administered orally at the dose levels indicated at 4, 8 nd 24 hours following the administration of streptozotocin. The results obtained in this manner are presented below in terms of percent inhibition (%) afforded by the test compound as compared to the case where no compound was administered (i.e., the untreated animal where sorbitol levels normally rise from approximately […]. tissue to as high as […]. tissue in the 27-hour test period): […]

[2] = tested on: sorbitol levels in the sciatic nerve and lens of diabetic subjects; assay: lowering of sorbitol levels in sciatic nerve (peripheral nerves) and lens of diabetic subjects (summary statement); format: in vivo; details: qualitative statement
[3] = tested on: galactitol levels in the lens of galactosemic subjects; assay: lowering of galactitol levels in the lens of galactosemic subjects (summary statement); format: in vivo; details: qualitative statement
[4] = 1.5 mg./kg. orally at 4, 8 and 24 h after streptozotocin
[5] = 5.0 mg./kg. orally at 4, 8 and 24 h after streptozotocin
[6] = 10 mg./kg. orally at 4, 8 and 24 h after streptozotocin
[7] = 0.75 mg./kg. orally at 4, 8 and 24 h after streptozotocin

O=C1NC(=O)C2(CCc3ccccc32)N1 (stereo not shown) [Ex. I, spiro-[imidazolidine-4,1'-indan]-2,5-dione] gave an inhibition at 100 µM (aldose reductase) of 73%, an inhibition at 10 µM (aldose reductase) of 39% and an inhibition at 1 µM (aldose reductase) of 18%. The inhibition at 0.1 µM (aldose reductase) was -11%, the “aldose reductase inhibitory activity (in words)” value (aldose reductase) was “highly potent” and the “Percent inhibition of sorbitol accumulation in the sciatic nerve” value (shortened to “Percent inhibition”) [1, 4] was 29%. For the same molecule, the “Percent inhibition” value [1, 5] was 52%, the “Percent inhibition” value [1, 6] was 67% and the “lowering of sorbitol levels in sciatic nerve (peripheral nerves) and lens (in words)” value (“lowering of sorbitol levels” below) [2] was “extremely effective”. The “lowering of galactitol levels in the lens (in words)” value (“lowering of galactitol levels” for short) [3] was “extremely effective”.
O=C1NC(=O)C2(CCSc3cc(Cl)c(Cl)cc32)N1 (stereo not shown) [Ex. XI, 6',7'-dichloro-spiro-[imidazolidine-4,4'-thiochroman]-2,5-dione] was tested, and the inhibition at 100 µM (aldose reductase) was 67%, the inhibition at 10 µM (aldose reductase) was 84% and the inhibition at 1 µM (aldose reductase) was 76%. The inhibition at 0.1 µM (aldose reductase) was 69%, the “aldose reductase inhibitory activity (in words)” value (aldose reductase) was “highly potent” and the “Percent inhibition” value [1, 5] was 59%. For the same molecule, the “lowering of sorbitol levels” value [2] was “extremely effective” and the “lowering of galactitol levels” value [3] was “extremely effective”.
O=C1NC(=O)C2(CCOc3cc(Cl)c(Cl)cc32)N1 (stereo not shown) [Ex. XXIII, 6,7-dichloro-spiro-[chroman-4,4'-imidazolidine]-2',5'-dione] showed an inhibition at 100 µM (aldose reductase) of 59%, an inhibition at 10 µM (aldose reductase) of 96% and an inhibition at 1 µM (aldose reductase) of 91%. For the same molecule, the inhibition at 0.1 µM (aldose reductase) was 84%, the “aldose reductase inhibitory activity (in words)” value (aldose reductase) was “highly potent” and the “Percent inhibition” value [1, 4] was 64%. For the same molecule, the “lowering of sorbitol levels” value [2] was “extremely effective” and the “lowering of galactitol levels” value [3] was “extremely effective”.
In the case of O=C1NC(=O)C2(CCOc3c(Cl)cc(Cl)cc32)N1 (stereo not shown) [Ex. XXIV, 6,8-dichloro-spiro-[chroman-4,4'-imidazolidine]-2',5'-dione], the inhibition at 100 µM (aldose reductase) is reported as 85%, the inhibition at 10 µM (aldose reductase) is reported as 90% and the inhibition at 1 µM (aldose reductase) is reported as 78%. The inhibition at 0.1 µM (aldose reductase) was 81%, the “aldose reductase inhibitory activity (in words)” value (aldose reductase) was “highly potent” and the “Percent inhibition” value [1, 7] was 82%. For the same molecule, the “lowering of sorbitol levels” value [2] was “extremely effective” and the “lowering of galactitol levels” value [3] was “extremely effective”.
For O=C1NC(=O)C2(CCOc3ccc(Cl)cc32)N1 (stereo not shown) [Ex. XXV, 6-chloro-spiro-[chroman-4,4'-imidazolidine]-2',5'-dione], the inhibition at 100 µM (aldose reductase) was 73%, the inhibition at 10 µM (aldose reductase) was 81% and the inhibition at 1 µM (aldose reductase) was 77%. The inhibition at 0.1 µM (aldose reductase) was 64%, the “aldose reductase inhibitory activity (in words)” value (aldose reductase) was “highly potent” and the “Percent inhibition” value [1, 7] was 64%. The “Percent inhibition” value [1, 4] was 84%, the “lowering of sorbitol levels” value [2] was “extremely effective” and the “lowering of galactitol levels” value [3] was “extremely effective”.
O=C1NC(=O)C2(CCOc3c(Cl)cccc32)N1 (stereo not shown) [Ex. XXVII, 8-chloro-spiro-[chroman-4,4'-imidazolidine]-2',5'-dione] was tested, and the inhibition at 100 µM (aldose reductase) was 87%, the inhibition at 10 µM (aldose reductase) was 85% and the inhibition at 1 µM (aldose reductase) was 52%. The inhibition at 0.1 µM (aldose reductase) was 6% and the “Percent inhibition” value [1, 4] was 30%.
O=C1NC(=O)C2(CC[S+]([O-])c3ccc(F)cc32)N1 (stereo not shown) [Ex. XXX, 6'-fluoro-spiro-[imidazolidine-4,4'-thiochroman]-2,5-dione-1'-oxide] gave an inhibition at 100 µM (aldose reductase) of 87%, an inhibition at 10 µM (aldose reductase) of 80% and an inhibition at 1 µM (aldose reductase) of 64%. For the same molecule, the inhibition at 0.1 µM (aldose reductase) was 16% and the “Percent inhibition” value [1, 4] was 35%.
O=C1NC(=O)C2(CCS(=O)(=O)c3ccc(F)cc32)N1 (stereo not shown) [Ex. XXXI, 6'-fluoro-spiro-[imidazolidine-4,4'-thiochroman]-2,5-dione-1',1'-dioxide] showed an inhibition at 100 µM (aldose reductase) of 85%, an inhibition at 10 µM (aldose reductase) of 74% and an inhibition at 1 µM (aldose reductase) of 74%. For the same molecule, the inhibition at 0.1 µM (aldose reductase) was 28%, the “Percent inhibition” value ([1]; 2.5 mg./kg. orally at 4, 8 and 24 h after streptozotocin) was 47% and the “Percent inhibition” value [1, 5] was 68%.
Work on O=C1NC(=O)C2(CS(=O)(=O)c3ccccc32)N1 (stereo not shown) [Ex. XXXIII, spiro-[imidazolidine-4,3'-thioindan]-2,5-dione-1,1'-dioxide] yielded an inhibition at 100 µM (aldose reductase) of 81%, an inhibition at 10 µM (aldose reductase) of 64% and an inhibition at 1 µM (aldose reductase) of 22%. The inhibition at 0.1 µM (aldose reductase) was 4% and the “Percent inhibition” value [1, 5] was 5%.
Work on O=C1NC(=O)C2(CCCc3ccccc32)N1 (stereo not shown) [Prep. C, 3',4'-Dihydro-spiro-[imidazolidine-4,1'(2'H)-naphthalene]-2,5-dione, reference compound] yielded an inhibition at 100 µM (aldose reductase) of 72%, an inhibition at 10 µM (aldose reductase) of 34% and an inhibition at 1 µM (aldose reductase) of 13%. The inhibition at 0.1 µM (aldose reductase) was 7%, the “Percent inhibition” value [1, 5] was 3% and the “Percent inhibition” value [1, 6] was 40%.
